Experimental data published in patent US20180346988A1, “ZNF532 FOR DIAGNOSIS AND TREATMENT OF CANCER” (THE BRIGHAM AND WOMEN'S HOSPITAL, INC., priority 2015, published 2018).

How the values were obtained:
Type in all cases: cell-based, human
24335 cells = test: Differentiation and proliferation of ZNF532-NUT+ 24335 NMC cells (involucrin/keratin expression, H&E); conditions: BET inhibitor treatment
Protocol: FIGS. 8A-8B describe experimental data showing differentiation of ZNF532-NUT+24335 cells in response to NUT knockdown or BET inhibitor.
(FIG. 10A) Immunoblot of involucrin expression, a marker of squamous differentiation. (FIG. 10B) H&E showing differentiation as evidenced by formation of cohesive spherical clusters, and marked accumulation of cytoplasm. (FIG. 10C) 500 nM JQ1 BET inhibitor was administered. Dose-response to JQ1 measured by cell titer glo. (FIG. 10D) Effects of ZNF532 and NUT knock down on number of mitoses quantified by immunohistochemistry using anti-histone H3phospho-serine antibody.
The importance of ZNF532 in NMC was underscored by simultaneous discovery of a patient with pulmonary NMC (FIG. 5A) harboring a ZNF532-NUT fusion gene, that was identified by whole transcriptome RNAsequencing (FIG. 5B), and confirmed by cytogenetics, fluorescence in situ hybridization (FISH), RT-PCR, western blotting, and immunofluorescence (FIGS. 5C-5F, 6). The fusion gene is comprised of exon 3 of ZNF532 fused to intron 1 of NUT (FIG. 7). The resulting predicted 1500 amino acid protein includes the N-terminal 778 amino acids of ZNF532, encoding only the first two of eleven zinc fingers and a large unstructured domain, part of intron 1 of NUT, and its remaining exons 2-7 (FIGS. 8A-8B). […]

PVT1 RNA = test: RNA-seq at the MYC locus (PVT1 lncRNA) in 24335 cells; conditions: JQ1 administered for 4 h prior to RNA collection
Protocol: (FIG. 11A) Localization of ZNF532-NUT and effects on transcription at the MYC locus based on ChIP-seq and RNA-seq. JQ1 was administered for 4 h prior to RNA collection.
Morphologic differentiation is evidenced by accumulation of abundant cytoplasm, enlargement of nuclei and cytoplasm, and formation of cohesive spheres. […] It has been shown that an important function of ZNF532-NUT is to maintain expression of MYC. […] One such megadomain occupies a region proximal to MYC (FIG. 11A). […] Consistent with its role in MYC upregulation, knockdown of ZNF532-NUT leads to decreased MYC protein levels (FIG. 11B).

ZNF532 locus = test: Nascent RNA-seq of transcription at the ZNF532 locus in NMC cell lines; conditions: NMC cell lines 797 and 1015, in the presence of JQ1
Description: Transcription is seen in two of the NMC cell lines, 797 and 1015, and is shown to diminish in the presence of JQ1.

In the case of `Cc1sc2c(c1C)C(c1ccc(Cl)cc1)=N[C@@H](CC(=O)OC(C)(C)C)c1nnc(C)n1-2` [JQ1, (S)-tert-butyl 2-(4-(4-chlorophenyl)-2,3,9-trimethyl-6H-thieno[3,2-f][1,2,4]triazolo[4,3-a][1,4]diazepin-6-yl)acetate], the “differentiation of 24335 cells (expression of involucrin, marker of terminal squamous differentiation)” value (24335 cells) is reported as “results in differentiation”, the “expression of the PVT1 RNA” value (PVT1 RNA) is reported as “decreased expression” and the “transcription at the ZNF532 locus” value (ZNF532 locus) is reported as “diminish”.
